Experimental data from patent publication US12458021B2, “Microbiocidal derivatives” (SYNGENTA CROP PROTECTION AG, priority 2019, dated 2025).

How the values were obtained:
[1] = system: Monographella nivalis (Microdochium nivale); experiment: Monographella nivalis (Microdochium nivale) / liquid culture (foot rot cereals); format: cell-based; details: PDB potato dextrose broth, 24° C., 4-5 days after application, read-out: control of Monographella nivalis (inhibition of growth, photometric)
Method in brief: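 Cryostored M. nivalis conidia mixed into potato dextrose broth and added to 96-well plates holding test compound in DMSO. Incubated at 24° C; growth inhibition read photometrically 4-5 days after application.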

[2] = system: Magnaporthe grisea (Pyricularia oryzae); experiment: whole plant or invertebrate; format: in vivo; details: foliar, read-out: control of Magnaporthe grisea (percent disease control compared to untreated)
Alternaria solani = Alternaria solani / tomato / leaf disc (early blight); format: in vivo; details: foliar, tomato leaf disks cv. Baby, inoculated 2 days after application, assessed 5-7 days after application, read-out: control of Alternaria solani (percent disease control compared to untreated)
Experimental: Example B1: Alternaria solani/Tomato/Leaf Disc (Early Blight) Tomato leaf disks cv. Baby are placed on agar in multiwell plates (24-well format) and sprayed with the formulated test compound diluted in water. The leaf disks are inoculated with a spore suspension of the fungus 2 days after application. The inoculated leaf disks are incubated at 23° C./21° C. […] […]-185.

[3] = system: Blumeria graminis f. sp. tritici (Erysiphe graminis f. sp. tritici); experiment: Blumeria graminis f. sp. tritici / wheat / leaf disc preventative (powdery mildew on wheat); format: in vivo; details: foliar, wheat leaf segments cv. Kanzler, inoculated 1 day after application, assessed 6-8 days after application, read-out: control of Blumeria graminis f. sp. tritici (percent disease control compared to untreated)
Source text: Example B4: Blumeria graminis f. sp. tritici (Erysiphe graminis f. sp. tritici)/Wheat/Leaf Disc Preventative (Powdery Mildew on Wheat) Wheat leaf segments cv. Kanzler are placed on agar in a multiwell plate (24-well format) and sprayed with the formulated test compound diluted in water. The leaf disks are inoculated by shaking powdery mildew infected plants above the test plates 1 day after application. […] […]-192.

Pyrenophora teres = Pyrenophora teres / barley / leaf disc preventative (net blotch); format: in vivo; details: foliar, barley leaf segments cv. Hasso, inoculated 2 days after application, assessed 5-7 days after application, read-out: control of Pyrenophora teres (disease control compared to untreated)
Method in brief: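 Barley cv. Hasso leaf discs on agar were sprayed with diluted formulated compound, then inoculated with spore suspension 2 days later. Incubation at 20 °C, 65% rh, 12 h light/dark; disease control versus untreated assessed 5-7 days after application.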

[4] = system: Glomerella lagenarium (Colletotrichum lagenarium); experiment: Glomerella lagenarium (Colletotrichum lagenarium) / liquid culture (anthracnose); format: cell-based; details: Colletotrichum orbiculare, PDB potato dextrose broth, 24° C., 3-4 days after application, read-out: control of Glomerella lagenarium (inhibition of growth, photometric)
Method in brief: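 Conidia from cryogenic storage suspended in potato dextrose broth and added to DMSO compound solution in plates. Incubated at 24° C; growth inhibition read photometrically 3-4 days after application.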

[5] = system: Mycosphaerella graminicola (Septoria tritici); experiment: Mycosphaerella graminicola (Septoria tritici) / liquid culture (Septoria blotch); format: cell-based; details: Zymoseptoria tritici, PDB potato dextrose broth, 24° C., 4-5 days after application, read-out: control of Mycosphaerella graminicola (inhibition of growth, photometric)
Method in brief: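 Conidia from cryogenic storage were mixed into potato dextrose broth and added to test compound in DMSO. Plates were incubated at 24° C, and growth inhibition was read photometrically 4-5 days after application.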

Sclerotinia sclerotiorum = Sclerotinia sclerotiorum / liquid culture (cottony rot); format: cell-based; details: PDB potato dextrose broth, mycelia fragments, 24° C., 3-4 days after application, read-out: control of Sclerotinia sclerotiorum (inhibition of growth, photometric)
Experimental: Example B14: Sclerotinia sclerotiorum/Liquid Culture (Cottony Rot) Mycelia fragments of a newly grown liquid culture of the fungus are directly mixed into nutrient broth (PDB potato dextrose broth). After placing a (DMSO) solution of test compound into a microtiter plate (96-well format) the nutrient broth containing the fungal material is added. The test plates are incubated at 24° C. and the inhibition of growth is determined photometrically 3-4 days after application.

[6] = system: Phaeosphaeria nodorum (Septoria nodorum); experiment: Phaeosphaeria nodorum (Septoria nodorum) / wheat / leaf disc preventative (glume blotch); format: in vivo; details: Parastagonospora nodorum, foliar, wheat leaf segments cv. Kanzler, inoculated 2 days after application, assessed 5-7 days after application, read-out: control of Phaeosphaeria nodorum (percent disease control compared to untreated)
Experimental: Example B6: Phaeosphaeria nodorum (Septoria nodorum)/Wheat/Leaf Disc Preventative (Glume Blotch) Wheat leaf segments cv. Kanzler are placed on agar in a multiwell plate (24-well format) and sprayed with the formulated test compound diluted in water. The leaf disks are inoculated with a spore suspension of the fungus 2 days after application. The inoculated test leaf disks are incubated at 20° C. and 75% rh under a light regime of 12 h light/12 h darkness in a climate cabinet and the activity of a compound is assessed as percent disease control compared to untreated when an appropriate level of disease damage appears in untreated check leaf disks (5-7 days after application). […] […]-190.

[7] = system: Botryotinia fuckeliana (Botrytis cinerea); experiment: Botryotinia fuckeliana (Botrytis cinerea) / liquid culture (gray mould); format: cell-based; details: Vogels broth, 24° C., 3-4 days after application, read-out: control of Botryotinia fuckeliana (inhibition of growth, photometric)
Experimental: Example B2: Botryotinia fuckeliana (Botrytis cinerea)/Liquid Culture (Gray Mould) Conidia of the fungus from cryogenic storage are directly mixed into nutrient broth (Vogels broth). After placing a (DMSO) solution of test compound into a microtiter plate (96-well format), the nutrient broth containing the fungal spores is added. The test plates are incubated at 24° C. and the inhibition of growth is determined photometrically 3-4 days after application. […] […]-190.

[8] = system: Puccinia recondita f. sp. tritici; experiment: Puccinia recondita f. sp. tritici / wheat / leaf disc preventative (brown rust); format: in vivo; details: foliar, wheat leaf segments cv. Kanzler, inoculated 1 day after application, assessed 7-9 days after application, read-out: control of Puccinia recondita f. sp. tritici, preventative (percent disease control compared to untreated)
Method in brief: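 Wheat leaf segments (cv. Kanzler) on agar were sprayed with formulated compound, then inoculated with spores 1 day later. Segments were incubated at 19 °C, 75% rh with 12 h light/dark. Percent disease control versus untreated was scored 7–9 days after application.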

[9] = system: Mycosphaerella arachidis (Cercospora arachidicola); experiment: Mycosphaerella arachidis (Cercospora arachidicola) / liquid culture (early leaf spot); format: cell-based; details: PDB potato dextrose broth, 24° C., 4-5 days after application, read-out: control of Mycosphaerella arachidis (inhibition of growth, photometric)
Method in brief: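 Conidia from cryogenic storage suspended in potato dextrose broth and added to compound in DMSO. Incubation at 24° C; growth inhibition read photometrically 4-5 days after application.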

COc1cnc(Nc2cc(F)cc(F)c2)nc1C(=O)NC1CCC1(C)C (stereo not drawn) [Compound P-10, 2-(3,5-difluoroanilino)-N-(2,2-dimethylcyclobutyl)-5-methoxy-pyrimidine-4-carboxamide]
≥ 80%: inhibition at 20 ppm [1] | pest or weed control at 200 ppm [2] | pest or weed control at 200 ppm (Alternaria solani) | pest or weed control at 200 ppm [3] | pest or weed control at 200 ppm (Pyrenophora teres) | inhibition at 20 ppm [4] | inhibition at 20 ppm [5] | inhibition at 20 ppm (Sclerotinia sclerotiorum)

CC(C)(C)NC(=O)c1cccc(Nc2cc(F)cc(F)c2)n1 [Compound P-112, N-tert-butyl-6-(3,5-difluoroanilino)pyridine-2-carboxamide]
≥ 80%: pest or weed control at 200 ppm [6] | inhibition at 20 ppm [7] | inhibition at 20 ppm [1] | pest or weed control at 200 ppm [2] | pest or weed control at 200 ppm (Alternaria solani) | pest or weed control at 200 ppm [3] | inhibition at 20 ppm [4] | inhibition at 20 ppm [5] | pest or weed control at 200 ppm [8]

COc1cc(Nc2cc(F)cc(F)c2)nc(C(=O)NC(C)(C)C)c1 [Compound P-116, N-tert-butyl-6-(3,5-difluoroanilino)-4-methoxy-pyridine-2-carboxamide]
≥ 80%: pest or weed control at 200 ppm [6] | inhibition at 20 ppm [7] | pest or weed control at 200 ppm (Pyrenophora teres) | inhibition at 20 ppm [4]

COc1ccc(Nc2cc(F)cc(F)c2)nc1C(=O)NC1(C)CCOC1 (stereo not drawn) [Compound P-122, 6-(3,5-difluoroanilino)-3-methoxy-N-(3-methyltetrahydrofuran-3-yl)pyridine-2-carboxamide]
≥ 80%: inhibition at 20 ppm [1] | pest or weed control at 200 ppm [2] | pest or weed control at 200 ppm [3] | inhibition at 20 ppm [4] | inhibition at 20 ppm [5] | inhibition at 20 ppm (Sclerotinia sclerotiorum)

COc1ccc(Nc2cc(F)cc(F)c2)nc1C(=O)NC1(C#N)CCCC1 [Compound P-123, N-(1-cyanocyclopentyl)-6-(3,5-difluoroanilino)-3-methoxy-pyridine-2-carboxamide]
≥ 80%: inhibition at 20 ppm [1] | pest or weed control at 200 ppm [2] | pest or weed control at 200 ppm [3] | inhibition at 20 ppm [4] | inhibition at 20 ppm [5] | pest or weed control at 200 ppm [8] | inhibition at 20 ppm (Sclerotinia sclerotiorum)

COc1ccc(Nc2cc(F)cc(Cl)c2)nc1C(=O)NCC(C)(C)C [Compound P-134, 6-(3-chloro-5-fluoro-anilino)-N-(2,2-dimethylpropyl)-3-methoxy-pyridine-2-carboxamide]
≥ 80%: inhibition at 20 ppm [7] | inhibition at 20 ppm [1] | pest or weed control at 200 ppm [3] | pest or weed control at 200 ppm (Pyrenophora teres) | inhibition at 20 ppm [4] | inhibition at 20 ppm [5]

COc1ccc(Nc2cccc(Cl)c2)nc1C(=O)NC(C)(C)C [Compound P-155, N-tert-butyl-6-(3-chloroanilino)-3-methoxy-pyridine-2-carboxamide]
≥ 80%: inhibition at 20 ppm [7] | inhibition at 20 ppm [1] | pest or weed control at 200 ppm [2] | pest or weed control at 200 ppm (Pyrenophora teres) | inhibition at 20 ppm [4] | inhibition at 20 ppm [5] | pest or weed control at 200 ppm [8]

COc1ccc(Nc2ccc3occc3c2)nc1C(=O)NC(C)(C)C [Compound P-157, 6-(benzofuran-5-ylamino)-N-tert-butyl-3-methoxy-pyridine-2-carboxamide]
≥ 80%: inhibition at 20 ppm [1] | inhibition at 20 ppm [4] | inhibition at 20 ppm [5] | inhibition at 20 ppm (Sclerotinia sclerotiorum)

COc1ccc(Nc2cc(F)cc(F)c2)nc1C(=O)NC(C)(C)C(C)(C)C [Compound P-171, 6-(3,5-difluoroanilino)-3-methoxy-N-(1,1,2,2-tetramethylpropyl)pyridine-2-carboxamide]
≥ 80%: pest or weed control at 200 ppm [6] | inhibition at 20 ppm [7] | inhibition at 20 ppm [1] | pest or weed control at 200 ppm (Alternaria solani) | inhibition at 20 ppm [9] | pest or weed control at 200 ppm [3] | pest or weed control at 200 ppm (Pyrenophora teres) | inhibition at 20 ppm [4] | inhibition at 20 ppm [5] | pest or weed control at 200 ppm [8]

COc1ccc(Nc2cc(F)cc(F)c2)nc1C(=O)NC(C)(C)C(C)C [Compound P-172, 6-(3,5-difluoroanilino)-3-methoxy-N-(1,1,2-trimethylpropyl)pyridine-2-carboxamide]
≥ 80%: pest or weed control at 200 ppm [6] | inhibition at 20 ppm [7] | inhibition at 20 ppm [1] | pest or weed control at 200 ppm (Alternaria solani) | inhibition at 20 ppm [9] | pest or weed control at 200 ppm [3] | inhibition at 20 ppm [4] | inhibition at 20 ppm [5] | pest or weed control at 200 ppm [8]

COc1ccc(Nc2cc(F)nc(F)c2)nc1C(=O)NC(C)(C)C(C)C [Compound P-173, 6-[(2,6-difluoro-4-pyridyl)amino]-3-methoxy-N-(1,1,2-trimethylpropyl)pyridine-2-carboxamide]
≥ 80%: inhibition at 20 ppm [7] | inhibition at 20 ppm [1] | pest or weed control at 200 ppm (Alternaria solani) | pest or weed control at 200 ppm [3] | inhibition at 20 ppm [4] | inhibition at 20 ppm [5] | pest or weed control at 200 ppm [8]

COc1ccc(N(C(C)=O)c2cc(F)cc(F)c2)nc1C(=O)NC1CCC1(C)C (stereo not drawn) [Compound P-189, 6-(N-acetyl-3,5-difluoro-anilino)-N-(2,2-dimethylcyclobutyl)-3-methoxy-pyridine-2-carboxamide]
≥ 80%: pest or weed control at 200 ppm [6] | inhibition at 20 ppm [7] | inhibition at 20 ppm [1] | pest or weed control at 200 ppm [2] | pest or weed control at 200 ppm [3] | inhibition at 20 ppm [4] | inhibition at 20 ppm [5]

COc1ccc(Nc2cc(F)cc(F)c2Cl)nc1C(=O)NC(C)(C)C [Compound P-190, N-tert-butyl-6-(2-chloro-3,5-difluoro-anilino)-3-methoxy-pyridine-2-carboxamide]
≥ 80%: pest or weed control at 200 ppm [6] | inhibition at 20 ppm [7] | inhibition at 20 ppm [1] | inhibition at 20 ppm [4] | inhibition at 20 ppm [5] | pest or weed control at 200 ppm [8]
